Data published in patent publication US20190093079A1, “METHODS FOR CONTROLLED PROLIFERATION OF STEM CELLS / GENERATING INNER EAR HAIR CELLS USING GSK-3-ALPHA INHIBITORS” (Frequency Therapeutics, Inc., priority 2016, published 2019).
Entries after “also recorded” stand apart in the source; their conditions may differ.

How the values were obtained:
[1] = test system: Lgr5-GFP inner ear progenitor cells; assay: Expansion of Lgr5-GFP inner ear progenitor cells in Matrigel 3D culture; type: cell-based, mouse; conditions: 10 days culture, background of EGF, bFGF, IGF-1 and VPA; FIGS. 1A and 2A
Method: Isolation of stem cells from the inner ear: All animal studies were conducted under an approved institutional protocol according to National Institutes of Health guidelines. For experiments with neonatal mice (postnatal days 1-3), the cochleae were dissected in HBSS and the organ of Corti was separated from the stria vascularis and the modiolus. The organs of Corti were then treated with Cell Recovery Solution (Corning) for 1 h to separate cochlear epithelium from the underlying mesenchyme. Epithelia were then collected and treated with TrypLE (Life Technologies) for 15-20 minutes at 37° C. Single cells obtained by mechanical trituration were filtered (40 μm) and suspended in Matrigel (Corning) for 3D culture.
Cells were cultured in a 1:1 mixture of DMEM and F12, supplemented with Glutamax (GIBCO), N2, B27 (Invitrogen), EGF (50 ng/mL; Chemicon), bFGF (50 ng/mL; Chemicon), IGF1 (50 ng/mL; Chemicon) and a GSK3-alpha inhibitor. […]
Lgr5-positive cells were quantified after 10 days (D10) in culture in multiple conditions. […] The cells were then stained with propidium iodide (PI) and analyzed using a flow cytometer for Lgr5-GFP expression. The number of GFP-positive cells and the percentage of GFP-positive cells were quantified. […]
Lgr5 cell quantification: Cell culture media was removed and Tryple was added. […] Live Lgr5-GFP cell number was counted using PI staining and the Lgr5-GFP.

[2] = test system: organ of Corti isolated from Lgr5-GFP mice; assay: Cochlear explant: organ of Corti treated ex vivo; type: cell-based, mouse
Method: For cochlear explant studies, organ of Corti isolated from Lgr5-GFP mice were treated with either CHIR99021+VPA or GSK3-inhibitor XXII+VPA for 3 days. Organ of Corti were plated on a cover slip and bathed in media containing the drugs. Growth factors were not present. CHIR99021 (3 uM), GSK3-inhibitor XXII (0.3 uM), VPA (1 mM).

noise-damaged inner ear = assay: Hearing recovery (ABR threshold) in noise damaged CBA/CaJ mice; type: in vivo; conditions: trans-tympanic Poloxamer gel 24 h after noise exposure, ABR at 30 days, 5-40 kHz; FIG. 4
Method: For the mouse studies, a 17-19% (w/w) stock solution of poloxamer 407 gel (Sigma-Aldrich) was prepared by slowly adding it to cold 1× phosphate-buffered saline at pH 7.4. This solution is liquid when refrigerated or at room temperature but solidifies at body temperature. The gel was tinted blue with Evans blue dye (50 ppm) for visualization during administration.
A formulation was then prepared with 87.6 mg/ml VPA and 55.6 mg/ml CHIR99021 or 87.6 mg/ml VPA and 50 mg/ml GSK3 inhibitor XXII in 17-19% Poloxamer 407 with 5% DMSO.
CBA/CaJ mice were deafened in a noise chamber by exposure to an 8-16 kHz octave band noise band for 2 hours at 120 dB SPL. 24 hours after noise exposure, their hearing was assessed by measuring auditory brainstem responses (ABRs). The minimum sound pressure level (SPL) required for visual detection of ABR Wave I was determined at 5, 10, 20, 28.3, and 40 kHz. Following ABR measurements, a trans-tympanic injection of a Poloxamer gel drug mixture was delivered to fill the middle ear cavity. After 30 days, ABR was assessed and the improvement in hearing threshold from 24 hrs to 30 days after noise exposure was determined.

GSK3-alpha [3] = biological target: T1, GSK3-alpha (Homo sapiens, UniProt P49840); conditions: cited from earlier work; for IC50: potency = IC50, literature values
GSK3-beta = GSK3-beta (Homo sapiens, UniProt P49841); conditions: potency = IC50; literature values; cited from earlier work
GSK3-alpha [4] = biological target: T1, GSK3-alpha; assay: GSK3-alpha potency (IC50), kinase assay; type: biochemical; conditions: GSK3-alpha/GSK3-beta selectivity ratio = IC50 GSK3-beta divided by IC50 GSK3-alpha

T1 sequence (P49840 whole entry, species assumed): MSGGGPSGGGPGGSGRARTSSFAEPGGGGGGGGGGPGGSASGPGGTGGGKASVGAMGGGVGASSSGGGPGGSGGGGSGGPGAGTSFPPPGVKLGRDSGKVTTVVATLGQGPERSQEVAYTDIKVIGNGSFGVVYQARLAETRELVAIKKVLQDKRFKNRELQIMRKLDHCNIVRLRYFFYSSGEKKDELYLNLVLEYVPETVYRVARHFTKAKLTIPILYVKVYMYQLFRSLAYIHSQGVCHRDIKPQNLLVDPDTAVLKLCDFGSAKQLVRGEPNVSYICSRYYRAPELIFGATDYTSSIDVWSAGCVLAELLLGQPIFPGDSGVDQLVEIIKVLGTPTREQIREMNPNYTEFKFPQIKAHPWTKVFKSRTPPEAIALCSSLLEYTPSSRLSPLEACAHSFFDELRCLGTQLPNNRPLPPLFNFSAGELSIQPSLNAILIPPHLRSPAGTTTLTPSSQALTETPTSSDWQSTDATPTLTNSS
Sequence of GSK3-beta (P49841 whole entry, species assumed): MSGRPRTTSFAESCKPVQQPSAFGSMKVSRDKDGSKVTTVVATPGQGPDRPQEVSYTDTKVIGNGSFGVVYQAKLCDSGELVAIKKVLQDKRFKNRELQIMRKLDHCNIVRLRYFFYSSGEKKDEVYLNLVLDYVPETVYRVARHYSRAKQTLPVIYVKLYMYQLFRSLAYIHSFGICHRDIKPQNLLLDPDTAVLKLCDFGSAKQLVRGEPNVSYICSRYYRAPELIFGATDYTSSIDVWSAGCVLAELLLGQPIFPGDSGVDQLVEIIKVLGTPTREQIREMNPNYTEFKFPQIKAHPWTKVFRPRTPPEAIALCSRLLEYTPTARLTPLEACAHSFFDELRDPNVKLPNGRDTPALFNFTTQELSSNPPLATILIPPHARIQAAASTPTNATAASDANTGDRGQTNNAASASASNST

SMILES: Cc1ccc(C(=O)Nc2c[nH]nc2C(=O)NCCCOC(C)C)cn1 [GSK-3b XXII]
- Expansion of Lgr5-GFP cells / Lgr5-GFP+ colonies [1]: large colonies of Lgr5-GFP+ cells were observed
- Lgr5-GFP expression in organ of Corti ([2]; 3 days, 0.3 uM with VPA 1 mM, FIG. 3): increased Lgr5-GFP expression
- rows of inner hair cells ([2]; 3 days, normal 1 row, FIG. 3): 2 rows
- rows of outer hair cells ([2]; 3 days, normal 3 rows, FIG. 3): 6 rows
- hair cell number in organ of Corti ([2]; in combination with VPA, FIG. 3, listed as GSK3 inhibitor XXII): increase in hair cell number; also recorded: increased number of hair cells
- hearing recovery (noise-damaged inner ear): evidence of hearing recovery
- GSK3α versus GSK3β inhibition preference (GSK3-alpha [3]): equally inhibits GSK3α and GSK3β
- IC50 (GSK3-alpha [3]): 2.3 nM

SMILES: N#Cc1ccc2[nH]c(O)c(-c3ccc(CN4CCOCC4)cn3)c2c1 [AZD1080]
- Expansion of Lgr5-GFP cells / Lgr5-GFP+ colonies [1]: large colonies of Lgr5-GFP+ cells were observed
- GSK3α versus GSK3β inhibition preference (GSK3-alpha [3]): preferentially inhibits GSK3α

SMILES: O=C1NC(=O)[C@@H](c2cn3c4c(cccc24)CCC3)[C@@H]1c1c[nH]c2ccccc12 [Tivantinib]
- IC50 (GSK3-alpha [3]): 659 nM
- IC50 (GSK3-beta): 1870 nM

SMILES: Cc1c[nH]c(-c2cnc(NCCNc3ccc(C#N)cn3)nc2-c2ccc(Cl)cc2Cl)n1 [CHIR99021]
- GSK3α versus GSK3β inhibition preference (GSK3-alpha [3]): preferentially inhibits GSK3β

SMILES: COc1ccccc1[C@@H]1C2=C(CC(C)(C)CC2=O)Nc2n[nH]c(C(F)(F)F)c21 [BRD1172]
- Ratio of Alpha to Beta (GSK3-alpha [4]): 3.3
- IC50 (GSK3-alpha [3]): 3 nM
- IC50 (GSK3-beta): 10 nM
